In patent US20030144360A1, “Composition and method for modulating BAR/FXR receptor activity” (Allergan Sales, Inc., priority 2001, published 2003):
“And” between values parts separate entries of the source, which are not always exact repeats. Equal values may be shown once.

How the values were obtained:
MFXR / HRXRop = target: T1, MFXR / HRXRop (UniProt P19793+Q60641); assay: Co-transfection luciferase assay, EcRE × 6 reporter, MFXR + HRXRop;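 further: CV-1 African green monkey cells, liposome transfection with a β-galactosidase vector serving as internal control, luciferase chemiluminescence read after roughly 40 h compound exposure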
T1 sequence (Q60641 1-488): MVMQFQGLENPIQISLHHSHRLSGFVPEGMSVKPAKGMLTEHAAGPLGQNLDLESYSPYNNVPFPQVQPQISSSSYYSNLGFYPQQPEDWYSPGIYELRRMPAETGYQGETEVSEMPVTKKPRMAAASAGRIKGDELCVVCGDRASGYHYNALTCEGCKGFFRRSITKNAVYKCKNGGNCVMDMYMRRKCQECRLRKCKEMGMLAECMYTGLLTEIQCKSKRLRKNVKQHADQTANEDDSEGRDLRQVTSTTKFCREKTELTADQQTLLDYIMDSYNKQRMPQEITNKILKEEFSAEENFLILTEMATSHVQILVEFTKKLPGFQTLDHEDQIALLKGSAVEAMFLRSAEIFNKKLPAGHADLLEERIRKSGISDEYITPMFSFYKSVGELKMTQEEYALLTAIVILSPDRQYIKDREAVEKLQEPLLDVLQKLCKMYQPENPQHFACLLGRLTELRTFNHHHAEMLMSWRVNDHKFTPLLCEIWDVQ
T1 sequence (P19793 1-462): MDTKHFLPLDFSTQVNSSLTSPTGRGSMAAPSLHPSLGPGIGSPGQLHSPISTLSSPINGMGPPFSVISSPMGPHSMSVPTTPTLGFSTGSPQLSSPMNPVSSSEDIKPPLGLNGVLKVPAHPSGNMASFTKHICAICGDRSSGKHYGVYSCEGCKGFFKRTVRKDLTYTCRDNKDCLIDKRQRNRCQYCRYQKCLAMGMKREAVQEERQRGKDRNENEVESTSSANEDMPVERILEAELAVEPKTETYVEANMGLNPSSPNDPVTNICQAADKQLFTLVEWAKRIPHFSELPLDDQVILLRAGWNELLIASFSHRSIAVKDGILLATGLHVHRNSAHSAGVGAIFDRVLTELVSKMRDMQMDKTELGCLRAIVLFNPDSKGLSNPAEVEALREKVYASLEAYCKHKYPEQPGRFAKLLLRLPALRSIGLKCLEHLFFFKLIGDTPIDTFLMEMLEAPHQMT
Experimental: (§1) CV-1 African Green Monkey cells were grown in Dulbecco's Modified Eagle's medium supplemented with 10% resin-charcoal stripped fetal bovine serum (FBS), 50 U/ml penicillin G and 50 μg/ml streptomycin sulfate (DMEM-FBS) at 37° C. in 5% CO2. One day prior to transfection, cells were plated to 50-80% confluence using phenol red-free DMEM-FBS. Cells were transiently transfected by lipofection as described in Forman et al., 81 Cell 687 (1995). Liposomes (N-[1-(2,3-dioleoyloxy)propyl]-N,N,N-ammonium methyl sulfate, sold by Boehringer Mannheim under the name DOTAP) were formed according to the manufacturer's instructions. The liposomes contained reporter gene constructs (300 ng/10^5 cells); cytomegalovirus driven expression vectors (25 ng/10^5 cells) were added as indicated along with CMX-Bgal (500 ng/10^5 cells) as an internal control. After 2 hours the liposomes were removed and replaced with fresh media. Cells were incubated for approximately 40 hours with phenol red-free DMEM-FBS containing the indicated compounds. After exposure to the specified ligand, the cells were harvested.
(§2) The harvested cells were assayed for the presence of luciferase activity. Cells were lysed in 0.1 M KPO4 (pH 7.8), 1.0% TRITON® X-100, 1.0 mM dithiolthreitol (DTT) and 2 mM ethylenediamine tetracetic acid (EDTA). Luciferase activity was measured by reaction of the cell lysates with luciferin in a reaction buffer comprising: 20 mM tricine, 1.07 mM Mg(CO3)4-Mg(OH)2-5H2O, 2.67 mM MgSO4.7H2O, 0.1 mM EDTA, 0.5 mM Sodium luciferin, 0.15 mg/ml Coenzyme A, 5 mM DTT, and 0.5 mM adenosine triphosphate (ATP). Resulting chemiluminescence was measured in a luminometer. […] All points were assayed in triplicate and varied by less than 15%. Each experiment was repeated three or more times with similar results.
(§3) As shown below, in most cases hRXRop was recombinantly coexpressed with one other of the indicated receptor constructs, so as to permit the formation of hetero-or homodimers containing hRXRop.
(§4) Expression of the luciferase reporter gene product was detected and quantified as described above.

HFXR / HRXRop = target: T2, HFXR / HRXRop (Homo sapiens, UniProt P19793+Q96RI1); assay: Co-transfection luciferase assay, EcRE × 6 reporter, HFXR + HRXRop;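 further: CV-1 monkey cells transfected with receptor vectors, luciferase reporter and β-galactosidase internal control, exposed to compounds about 40 h, then lysed and luminescence read in a luminometer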
T2 sequence (Q96RI1 1-486): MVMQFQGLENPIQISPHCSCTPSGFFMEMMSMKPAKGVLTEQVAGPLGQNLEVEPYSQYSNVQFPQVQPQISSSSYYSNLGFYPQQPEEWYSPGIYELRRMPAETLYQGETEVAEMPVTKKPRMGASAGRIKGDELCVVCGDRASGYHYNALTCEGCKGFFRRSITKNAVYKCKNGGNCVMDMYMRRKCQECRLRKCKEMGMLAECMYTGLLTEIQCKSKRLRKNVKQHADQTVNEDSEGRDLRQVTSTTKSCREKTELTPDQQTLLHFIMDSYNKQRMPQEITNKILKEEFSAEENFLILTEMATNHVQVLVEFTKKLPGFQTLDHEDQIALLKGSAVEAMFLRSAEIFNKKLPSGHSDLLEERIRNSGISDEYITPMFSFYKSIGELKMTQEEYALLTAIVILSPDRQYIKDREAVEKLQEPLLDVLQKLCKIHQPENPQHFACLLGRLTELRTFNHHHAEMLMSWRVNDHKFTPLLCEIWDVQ
T2 sequence (P19793 1-462): T1 sequence (P19793 1-462)
Experimental: as §1, §2, §3, §4

CCCCCCOc1c(\C(C)=C/C=C/C(C)=C/C(=O)O)cc(C(C)C)cc1C(C)C [AGN 34, (2E, 4E, 6Z)-7-(2-Hexyloxy-3,5-diisopropylphenyl)-3-methylocta-2,4,6-trienoic Acid]
Fold Activation (MFXR / HRXRop; 0.1 μM LG268 + 0.01 μM AGN 34): 27.08 fold
Reporter Activity (MFXR / HRXRop; 0.1 μM LG268 + 0.01 μM AGN 34): 6.73
Fold Activation (MFXR / HRXRop; 0.1 μM LG268 + 0.1 μM AGN 34): 1.56 fold
Reporter Activity (MFXR / HRXRop; 0.1 μM LG268 + 0.1 μM AGN 34): 0.39
Fold Activation (MFXR / HRXRop; 0.1 μM LG268 + 1 μM AGN 34): 1.07 fold
Reporter Activity (MFXR / HRXRop; 0.1 μM LG268 + 1 μM AGN 34): 0.27
Fold Activation (MFXR / HRXRop; 0.1 μM LG268 + 3 μM AGN 34): 1.04 fold
Reporter Activity (MFXR / HRXRop; 0.1 μM LG268 + 3 μM AGN 34): 0.26
Fold Activation (MFXR / HRXRop; 0.1 μM LG268 + 10 μM AGN 34): 1.18 fold
Reporter Activity (MFXR / HRXRop; 0.1 μM LG268 + 10 μM AGN 34): 0.29
Fold Activation (MFXR / HRXRop; 10 μM AGN 34 alone): 1.18 fold and 1.39 fold
Reporter Activity (MFXR / HRXRop; 10 μM AGN 34 alone): 0.26 and 0.35
Fold Activation (MFXR / HRXRop; 50 μM CDCA + 0.01 μM AGN 34): 19.61 fold
Reporter Activity (MFXR / HRXRop; 50 μM CDCA + 0.01 μM AGN 34): 4.37
Fold Activation (MFXR / HRXRop; 50 μM CDCA + 0.1 μM AGN 34): 10.99 fold
Reporter Activity (MFXR / HRXRop; 50 μM CDCA + 0.1 μM AGN 34): 2.45
Fold Activation (MFXR / HRXRop; 50 μM CDCA + 1 μM AGN 34): 6.19 fold and 5.26 fold
Reporter Activity (MFXR / HRXRop; 50 μM CDCA + 1 μM AGN 34): 1.38
Fold Activation (MFXR / HRXRop; 50 μM CDCA + 3 μM AGN 34): 5.77 fold
Reporter Activity (MFXR / HRXRop; 50 μM CDCA + 3 μM AGN 34): 1.29
Fold Activation (MFXR / HRXRop; 50 μM CDCA + 10 μM AGN 34): 6.11 fold
Reporter Activity (MFXR / HRXRop; 50 μM CDCA + 10 μM AGN 34): 1.36
Fold Activation (HFXR / HRXRop; 0.1 μM LG268 + 0.01 μM AGN 34): 2.36 fold
Reporter Activity (HFXR / HRXRop; 0.1 μM LG268 + 0.01 μM AGN 34): 0.76
Fold Activation (HFXR / HRXRop; 0.1 μM LG268 + 0.1 μM AGN 34): 1.45 fold
Reporter Activity (HFXR / HRXRop; 0.1 μM LG268 + 0.1 μM AGN 34): 0.47
Fold Activation (HFXR / HRXRop; 0.1 μM LG268 + 1 μM AGN 34): 1.23 fold
Reporter Activity (HFXR / HRXRop; 0.1 μM LG268 + 1 μM AGN 34): 0.40
Fold Activation (HFXR / HRXRop; 0.1 μM LG268 + 3 μM AGN 34): 1.26 fold
Reporter Activity (HFXR / HRXRop; 0.1 μM LG268 + 3 μM AGN 34): 0.41
Fold Activation (HFXR / HRXRop; 0.1 μM LG268 + 10 μM AGN 34): 1.22 fold
Reporter Activity (HFXR / HRXRop; 0.1 μM LG268 + 10 μM AGN 34): 0.39
Fold Activation (HFXR / HRXRop; 10 μM AGN 34 alone): 1.21 fold and 1.35 fold
Reporter Activity (HFXR / HRXRop; 10 μM AGN 34 alone): 0.41 and 0.44
Fold Activation (HFXR / HRXRop; 50 μM CDCA + 0.01 μM AGN 34): 15.00 fold
Reporter Activity (HFXR / HRXRop; 50 μM CDCA + 0.01 μM AGN 34): 5.14
Fold Activation (HFXR / HRXRop; 50 μM CDCA + 0.1 μM AGN 34): 11.73 fold
Reporter Activity (HFXR / HRXRop; 50 μM CDCA + 0.1 μM AGN 34): 4.02
Fold Activation (HFXR / HRXRop; 50 μM CDCA + 1 μM AGN 34): 7.08 fold and 5.51 fold
Reporter Activity (HFXR / HRXRop; 50 μM CDCA + 1 μM AGN 34): 2.42
Fold Activation (HFXR / HRXRop; 50 μM CDCA + 3 μM AGN 34): 5.78 fold
Reporter Activity (HFXR / HRXRop; 50 μM CDCA + 3 μM AGN 34): 1.98
Fold Activation (HFXR / HRXRop; 50 μM CDCA + 10 μM AGN 34): 6.58 fold
Reporter Activity (HFXR / HRXRop; 50 μM CDCA + 10 μM AGN 34): 2.25
